Laboratory results from patent EP4603105A1, “PHARMACEUTICAL COMPOSITION CONTAINING CYCLIC COMPOUND HAVING SELECTIVE KRAS INHIBITORY EFFECT AGAINST HRAS AND NRAS” (CHUGAI SEIYAKU KABUSHIKI KAISHA, priority 2022, dated 2024).

Experiments:
HRAS wild-type protein = HRAS wild-type protein (Homo sapiens, UniProt P01112); experiment: Binding to HRAS by surface plasmon resonance (SPR), KD and KD ratio to KRAS; conditions: ratio of KD with respect to HRAS wild-type protein to KD with respect to KRAS
Procedure, shortened: (§1)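 Running buffer contained 10 µM GDP and 10 mM MgCl2 to keep RAS in the GDP state, with 4% DMSO at pH 7.4. Compounds were flowed at 100 µL/min in 75 s steps of rising concentration over captured biotin-Avi RAS at 30°C. Sensorgrams were fitted 1:1 for KD.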

[1] = target: GDP-bound NRAS wild-type protein (Homo sapiens, UniProt P01111); experiment: Binding to NRAS by surface plasmon resonance (SPR), KD and KD ratio to KRAS; conditions: ratio of KD with respect to GDP-bound NRAS wild-type protein to KD with respect to KRAS
GDP-bound NRAS wild-type protein, sequence (P01111 whole entry): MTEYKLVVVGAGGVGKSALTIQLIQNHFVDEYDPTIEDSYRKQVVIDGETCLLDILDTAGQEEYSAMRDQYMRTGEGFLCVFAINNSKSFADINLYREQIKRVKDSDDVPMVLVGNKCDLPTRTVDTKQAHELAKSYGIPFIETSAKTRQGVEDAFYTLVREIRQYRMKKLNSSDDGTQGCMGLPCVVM
Procedure, shortened: as §1

[2] = test system: human lung cancer strain NCI-H441; experiment: NCI-H441 cell proliferation inhibitory activity (CellTiter-Glo, 4 days); format: cell-based; conditions: 50% proliferation inhibitory concentration, four days, read-out: NCl-H441 IC50
Procedure, shortened: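 Step one: dispense the test compound in serial DMSO dilutions. Step three: add the reagent and measure […].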

[3] = target: GDP-bound KRAS wild-type protein (Homo sapiens, UniProt P01116); experiment: Binding to KRAS by surface plasmon resonance (SPR), dissociation constant KD; conditions: Single Cycle Kinetics, 1:1 binding model
GDP-bound KRAS wild-type protein, sequence (P01116 1-188 isoform P01116-2): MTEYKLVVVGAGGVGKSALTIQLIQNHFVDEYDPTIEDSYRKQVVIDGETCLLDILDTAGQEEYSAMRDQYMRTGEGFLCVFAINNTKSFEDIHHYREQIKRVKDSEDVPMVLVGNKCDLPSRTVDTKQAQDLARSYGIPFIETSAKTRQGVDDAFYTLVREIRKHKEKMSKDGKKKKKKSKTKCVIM
Procedure, shortened: as §1

HRAS wild-type protein, sequence (P01112 whole entry): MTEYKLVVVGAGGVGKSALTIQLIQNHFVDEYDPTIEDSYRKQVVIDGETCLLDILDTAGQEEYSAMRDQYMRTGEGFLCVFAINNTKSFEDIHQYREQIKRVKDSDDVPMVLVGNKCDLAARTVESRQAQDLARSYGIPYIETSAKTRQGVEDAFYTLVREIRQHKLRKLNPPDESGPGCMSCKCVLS

SMILES	HRAS /KRAS (HRAS wild-type protein)	NRAS /KRAS [1]	IC50 [2]	Kd [3]
CCO[C@@H]1C[C@H]2C(=O)NC3(CCC3)C(=O)N(C)[C@@H](C3CCCC3)C(=O)N(C)[C@H](C(=O)N(C)C)CC(=O)N(C)[C@@H](CC3CCCC3)C(=O)N[C@@H]([C@@H](C)CC)C(=O)N(C)CC(=O)N(C)[C@H]3C/C=C\CCN(C3=O)[C@@H](Cc3ccc(C(F)(F)F)cc3)C(=O)N(C)CC(=O)N[C@@H](CCc3ccc(C(F)(F)F)c(OC)c3)C(=O)N2C1 [PP1248]	A (a compound having 10 or more and less than 20 is denoted as A)	A (a compound having 10 or more and less than 20 is denoted as A)	7.3 nM	0.069 nM
CCO[C@@H]1C[C@H]2C(=O)NC3(CCC3)C(=O)N(C)[C@@H](C3CCCC3)C(=O)N(C)[C@H](C(=O)N(C)C)CC(=O)N(C)[C@@H](CC)C(=O)N[C@@H]([C@@H](C)CC)C(=O)N(C)CC(=O)N(C)[C@H]3C/C=C\CCN(C3=O)[C@@H](Cc3ccc(C(F)(F)F)cc3)C(=O)N(C)CC(=O)N[C@@H](CCc3ccc(Cl)c(Cl)c3)C(=O)N2C1 [PP1249]	A (a compound having 10 or more and less than 20 is denoted as A)	A (a compound having 10 or more and less than 20 is denoted as A)	55.4 nM	0.18 nM
CCO[C@@H]1C[C@H]2C(=O)NC3(CCC3)C(=O)N(C)[C@@H](C3CCCC3)C(=O)N(C)[C@H](C(=O)N(C)C)CC(=O)N(C)[C@@H](CC(C)C)C(=O)N[C@@H]([C@@H](C)CC)C(=O)N(C)CC(=O)N(C)[C@H]3C/C=C\CCN(C3=O)[C@@H](Cc3ccc(C(F)(F)F)cc3)C(=O)N(C)CC(=O)N[C@@H](CCc3ccc(Cl)c(Cl)c3)C(=O)N2C1 [PP1251]	A (a compound having 10 or more and less than 20 is denoted as A)	AA (a compound having 20 or more is denoted as AA)	10.2 nM	0.18 nM
CCCCCC[C@H]1C(=O)N[C@@H]([C@@H](C)CC)C(=O)N(C)CC(=O)N(C)[C@H]2C/C=C\CCN(C2=O)[C@@H](Cc2ccc(C(F)(F)F)cc2)C(=O)N(C)CC(=O)N[C@@H](CCc2ccc(Cl)c(Cl)c2)C(=O)N2C[C@H](OCC)C[C@H]2C(=O)NC2(CCC2)C(=O)N(C)[C@@H](C2CCCC2)C(=O)N(C)[C@H](C(=O)N(C)C)CC(=O)N1C [PP1252]	A (a compound having 10 or more and less than 20 is denoted as A)	AA (a compound having 20 or more is denoted as AA)	51.2 nM	0.3 nM
CCO[C@@H]1C[C@H]2C(=O)NC3(CCC3)C(=O)N(C)[C@@H](C3CCCC3)C(=O)N(C)[C@H](C(=O)N(C)C)CC(=O)N(C)[C@@H](CC3CC3)C(=O)N[C@@H]([C@@H](C)CC)C(=O)N(C)CC(=O)N(C)[C@H]3C/C=C\CCN(C3=O)[C@@H](Cc3ccc(C(F)(F)F)cc3)C(=O)N(C)CC(=O)N[C@@H](CCc3ccc(Cl)c(Cl)c3)C(=O)N2C1 [PP1253]	A (a compound having 10 or more and less than 20 is denoted as A)	A (a compound having 10 or more and less than 20 is denoted as A)	22.2 nM	0.2 nM
CCO[C@@H]1C[C@H]2C(=O)NC3(CCC3)C(=O)N(C)[C@@H](C3CCCC3)C(=O)N(C)[C@H](C(=O)N(C)C)CC(=O)N(C)[C@@H](CC3CCCC3)C(=O)N[C@@H]([C@@H](C)CC)C(=O)N(C)CC(=O)N(C)[C@H]3C/C=C\CCN(C3=O)[C@@H](Cc3ccc(C(F)(F)F)cc3)C(=O)N(C)CC(=O)N[C@@H](CCc3ccc(Cl)c(Cl)c3)C(=O)N2C1 [PP1254]	A (a compound having 10 or more and less than 20 is denoted as A)	AA (a compound having 20 or more is denoted as AA)	28.3 nM	0.2 nM
CCC[C@H]1C(=O)N[C@@H]([C@@H](C)CC)C(=O)N(C)CC(=O)N(C)[C@H]2C/C=C\CCN(C2=O)[C@@H](Cc2ccc(C(F)(F)F)cc2)C(=O)N(C)CC(=O)N[C@@H](CCc2ccc3sccc3c2)C(=O)N2C[C@H](OCC)C[C@H]2C(=O)NC2(CCC2)C(=O)N(C)[C@@H](C2CCCC2)C(=O)N(C)[C@H](C(=O)N(C)C)CC(=O)N1C [PP1256]	A (a compound having 10 or more and less than 20 is denoted as A)	A (a compound having 10 or more and less than 20 is denoted as A)	69 nM	0.36 nM
CCCCCC[C@H]1C(=O)N[C@@H]([C@@H](C)CC)C(=O)N(C)CC(=O)N(C)[C@H]2C/C=C\CCN(C2=O)[C@@H](Cc2ccc(C(F)(F)F)cc2)C(=O)N(C)CC(=O)N[C@@H](CCc2ccc3sccc3c2)C(=O)N2C[C@H](OCC)C[C@H]2C(=O)NC2(CCC2)C(=O)N(C)[C@@H](C2CCCC2)C(=O)N(C)[C@H](C(=O)N(C)C)CC(=O)N1C [PP1259]	A (a compound having 10 or more and less than 20 is denoted as A)	A (a compound having 10 or more and less than 20 is denoted as A)	62 nM	0.49 nM
CCO[C@@H]1C[C@H]2C(=O)NC3(CCC3)C(=O)N(C)[C@@H](C3CCCC3)C(=O)N(C)[C@H](C(=O)N(C)C)CC(=O)N(C)[C@@H](CC3CCCC3)C(=O)N[C@@H]([C@@H](C)CC)C(=O)N(C)CC(=O)N(C)[C@H]3C/C=C\CCN(C3=O)[C@@H](Cc3ccc(C(F)(F)F)cc3)C(=O)N(C)CC(=O)N[C@@H](CCc3ccc4sccc4c3)C(=O)N2C1 [PP1261]	A (a compound having 10 or more and less than 20 is denoted as A)	A (a compound having 10 or more and less than 20 is denoted as A)	76.8 nM	0.44 nM
CCO[C@@H]1C[C@H]2C(=O)NC3(CCC3)C(=O)N(C)[C@@H](C3CCCC3)C(=O)N(C)[C@H](C(=O)N(C)C)CC(=O)N(C)[C@@H](CC(C)C)C(=O)N[C@@H]([C@@H](C)CC)C(=O)N(C)CC(=O)N(C)[C@H]3C/C=C\CCN(C3=O)[C@@H](Cc3ccc(C(F)(F)F)cc3)C(=O)N(C)CC(=O)N[C@@H](CCc3cc(F)c(Cl)c(F)c3)C(=O)N2C1 [PP1263]	A (a compound having 10 or more and less than 20 is denoted as A)	A (a compound having 10 or more and less than 20 is denoted as A)	18.9 nM	0.23 nM
CCO[C@@H]1C[C@H]2C(=O)NC3(CCC3)C(=O)N(C)[C@@H](C3CCCC3)C(=O)N(C)[C@H](C(=O)N(C)C)CC(=O)N(C)[C@@H](CC)C(=O)N[C@@H]([C@@H](C)CC)C(=O)N(C)CC(=O)N(C)[C@H]3C/C=C\CCN(C3=O)[C@@H](Cc3ccc(C(F)(F)F)cc3)C(=O)N(C)CC(=O)N[C@@H](CCc3ccc(C(F)(F)F)c(C)c3)C(=O)N2C1 [PP1265]	B (a compound having 3 or more and less than 10 is denoted as B)	A (a compound having 10 or more and less than 20 is denoted as A)	14.1 nM	0.17 nM
CCOC[C@H]1C(=O)N[C@@H]([C@@H](C)CC)C(=O)N(C)CC(=O)N(C)[C@H]2C/C=C\CCN(C2=O)[C@@H](Cc2ccc(C(F)(F)F)cc2)C(=O)N(C)CC(=O)N[C@@H](CCc2cc(F)c(C(F)(F)F)c(F)c2)C(=O)N2C[C@H](OCC)C[C@H]2C(=O)NC2(CCC2)C(=O)N(C)[C@@H](C2CCCC2)C(=O)N(C)[C@H](C(=O)N(C)C)CC(=O)N1C [PP1266]	A (a compound having 10 or more and less than 20 is denoted as A)	A (a compound having 10 or more and less than 20 is denoted as A)	12.2 nM	0.045 nM
CCO[C@@H]1C[C@H]2C(=O)NC3(CCC3)C(=O)N(C)[C@@H](C3CCCC3)C(=O)N(C)[C@H](C(=O)N(C)C)CC(=O)N(C)[C@@H](COCC(F)(F)F)C(=O)N[C@@H]([C@@H](C)CC)C(=O)N(C)CC(=O)N(C)[C@H]3C/C=C\CCN(C3=O)[C@@H](Cc3ccc(C(F)(F)F)cc3)C(=O)N(C)CC(=O)N[C@@H](CCc3cc(F)c(C(F)(F)F)c(F)c3)C(=O)N2C1 [PP1267]	A (a compound having 10 or more and less than 20 is denoted as A)	A (a compound having 10 or more and less than 20 is denoted as A)	10.8 nM	0.046 nM
CCO[C@@H]1C[C@H]2C(=O)NC3(CCC3)C(=O)N(C)[C@@H](C3CCCC3)C(=O)N(C)[C@H](C(=O)N(C)C)CC(=O)N(C)[C@@H](COC3CC3)C(=O)N[C@@H]([C@@H](C)CC)C(=O)N(C)CC(=O)N(C)[C@H]3C/C=C\CCN(C3=O)[C@@H](Cc3ccc(C(F)(F)F)cc3)C(=O)N(C)CC(=O)N[C@@H](CCc3cc(F)c(C(F)(F)F)c(F)c3)C(=O)N2C1 [PP1268]	A (a compound having 10 or more and less than 20 is denoted as A)	A (a compound having 10 or more and less than 20 is denoted as A)	12.1 nM	0.045 nM
